Columns and labels:
Assay in all cases: relative viability (nuclei count vs DMSO), 5 days (fraction); higher = more cells survive
Adavosertib + Vorinostat = compound: C=CCn1c(=O)c2cnc(Nc3ccc(N4CCN(C)CC4)cc3)nc2n1-c1cccc(C(C)(C)O)n1 [Adavosertib] + O=C(CCCCCCC(=O)Nc1ccccc1)NO [Vorinostat] (partner 1 µM)
Method in brief: (§1)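 Relative viability divides the nuclei count in treated wells by that in vehicle wells. Lung cancer cell lines were seeded in 1536-well plates, dosed by pin tool the next day, and fixed and stained after 5 days in one step with final 0.05% Triton X-100, 1% formaldehyde and 1 ug/ml Hoechst. Dosing was a single drug or a fixed anchor-drug dose plus five library-drug doses (not always all listed) in √10 steps, and values are medians of duplicate plates imaged at 4×.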

Nelarabine + Vorinostat = compound: COc1nc(N)nc2c1ncn2[C@@H]1O[C@H](CO)[C@@H](O)[C@@H]1O [Nelarabine] + O=C(CCCCCCC(=O)Nc1ccccc1)NO [Vorinostat] (partner 1 µM)
Method in brief: as §1

Nelarabine + Dasatinib = compound: COc1nc(N)nc2c1ncn2[C@@H]1O[C@H](CO)[C@@H](O)[C@@H]1O [Nelarabine] + Cc1nc(Nc2ncc(C(=O)Nc3c(C)cccc3Cl)s2)cc(N2CCN(CCO)CC2)n1 [Dasatinib] (partner 0.075 µM)
Method in brief: as §1

Nelarabine + Decitabine = compound: COc1nc(N)nc2c1ncn2[C@@H]1O[C@H](CO)[C@@H](O)[C@@H]1O [Nelarabine] + Nc1ncn([C@H]2C[C@H](O)[C@@H](CO)O2)c(=O)n1 [Decitabine] (partner 2 µM)
Method in brief: as §1

| Cell Line | relative viability (Adavosertib + Vorinostat; first compound 0.01 µM) | relative viability (Adavosertib + Vorinostat; first compound 0.03162 µM) | relative viability (Adavosertib + Vorinostat; first compound 0.1 µM) | relative viability (Adavosertib + Vorinostat; first compound 0.3162 µM) | relative viability (Nelarabine + Vorinostat; first compound 0.01 µM) | relative viability (Nelarabine + Vorinostat; first compound 0.03162 µM) | relative viability (Nelarabine + Vorinostat; first compound 0.1 µM) | relative viability (Nelarabine + Vorinostat; first compound 0.3162 µM) | relative viability (Nelarabine + Vorinostat; first compound 1 µM) | relative viability (Nelarabine + Dasatinib; first compound 0.01 µM) | relative viability (Nelarabine + Dasatinib; first compound 0.03162 µM) | relative viability (Nelarabine + Dasatinib; first compound 0.1 µM) | relative viability (Nelarabine + Dasatinib; first compound 0.3162 µM) | relative viability (Nelarabine + Dasatinib; first compound 1 µM) | relative viability (Nelarabine + Decitabine; first compound 0.01 µM) | relative viability (Nelarabine + Decitabine; first compound 0.03162 µM) | relative viability (Nelarabine + Decitabine; first compound 0.1 µM) | relative viability (Nelarabine + Decitabine; first compound 0.3162 µM) | relative viability (Nelarabine + Decitabine; first compound 1 µM) |
| --- | --- | --- | --- | --- | --- | --- | --- | --- | --- | --- | --- | --- | --- | --- | --- | --- | --- | --- | --- |
| NCI-H1993 | 0.725 | 0.791 | 0.84 | 1.05 | 0.742 | 0.728 | 0.736 | 0.592 | 0.694 | 0.692 | 0.505 | 0.553 | 0.665 | 0.635 | 0.667 | 0.507 | 0.526 | 0.578 | 0.65 |
| HARA | 0.485 | 0.629 | 0.592 | 0.587 | 0.658 | 0.543 | 0.532 | 0.581 | 0.544 | 0.279 | 0.339 | 0.236 | 0.329 | 0.436 | 0.436 | 0.577 | 0.442 | 0.668 | 0.539 |
| HCC-366 | 0.353 | 0.411 | 0.319 | 0.219 | 0.582 | 0.343 | 0.391 | 0.47 | 0.339 | 0.907 | 0.71 | 0.588 | 0.79 | 0.661 | 0.419 | 0.346 | 0.296 | 0.31 | 0.34 |
| COR-L 105 | 0.892 | 0.848 | 0.898 | 0.677 | 0.805 | 0.887 | 0.952 | 1.12 | 0.726 | 0.339 | 0.402 | 0.259 | 0.351 | 0.319 | 0.691 | 0.723 | 0.644 | 0.66 | 0.719 |
| HCC-44 | 1.09 | 1.06 | 1.09 | 1.07 | 1.11 | 1.02 | 1.05 | 1.01 | 1.07 |  |  |  |  |  | 0.942 | 0.924 | 0.863 | 1.01 | 0.928 |
| LXF-289 | 0.795 | 0.791 | 0.768 | 0.735 | 0.84 | 0.698 | 0.674 | 0.807 | 0.662 | 0.156 | 0.218 | 0.146 | 0.202 | 0.196 | 0.43 | 0.414 | 0.379 | 0.39 | 0.37 |
| NCI-H1563 |  |  |  |  |  |  |  |  |  | 0.458 | 0.437 | 0.427 | 0.42 | 0.406 |  |  |  |  |  |
| IA-LM |  | 0.904 | 1.07 | 1.12 | 1.11 | 1 | 0.854 | 1.11 | 0.884 |  |  |  |  |  |  |  |  |  |  |
| NCI-H2228 |  | 0.606 | 0.536 | 0.294 | 0.634 | 0.569 | 0.387 | 0.495 | 0.792 | 0.725 | 0.481 |  | 0.629 | 0.559 |  |  |  |  |  |
| CAL-12T | 0.797 | 0.889 | 0.821 | 0.741 | 0.987 | 0.78 | 0.764 | 0.938 | 0.997 | 0.426 | 0.484 | 0.16 | 0.51 | 0.482 |  |  |  |  |  |
| NCI-H1623 |  |  |  |  |  |  |  |  |  | 0.525 | 0.563 | 0.51 | 0.559 | 0.517 |  |  |  |  |  |
| NCI-H1792 |  |  |  |  |  |  |  |  |  |  | 0.876 | 0.627 | 0.95 | 0.846 | 0.642 | 0.428 | 0.573 | 0.579 | 0.634 |
| A549 |  |  |  |  |  |  |  |  |  |  |  |  |  |  | 0.293 | 0.282 | 0.271 | 0.287 | 0.23 |

From the supplement of paper PMC10307832
